Laboratory results published in patent publication US20260250301A1, “KRAS G12D INHIBITORS AND USES THEREOF” (SUZHOU ZANRONG PHARMA LIMITED, priority 2023, published 2026).

Each compound was assayed on PANC-1 pERK (assay: Phospho-ERK 1/2 assay). Conditions: Homo sapiens, PANC-1, 3 h, PANC-1 cells, compound incubation 3 hours, pERK normalised with GAPDH antibody staining.
Type: cell-based
Procedure: Allow PNAC-1 cell growth in a T75 flask in DMEM and 10% 1 fetal calf serum (FCS; Gibco®), using standard tissue culture procedures until ~80% confluency is achieved. Day 1, seed 6000 cells/well in 384 well plate and incubate at 37° C., 5% CO2. Add diluted compound by Echo 550, final DMSO is 0.5%, incubate cells at 37° C., 5% CO2 for 3 hours. Then, remove medium and fix cells with 3.7% formaldehyde in PBS (PFA) by Apricot. Wash with PBS once. Permeabilize cells with cold 100% methanol and repeat wash once with PBS once. Add Li-Cor blocking buffer to each well and incubate 1.5 hours at RT. Remove blocking buffer and add primary antibody mixture (rabbit anti pERK, mouse anti GAPDH). Incubate at 4° C. overnight. Day 2, wash with PBST (Tween-20 in PBS) with total 3 times and then add secondary antibody mixture (goat anti rabbit 800CW (1:800 dilution in the combined solution) and goat anti mouse 680RD (1:800 dilution in the combined solution)), incubate for 60 minutes at RT away from light. Repeat washing with PBST 3 times. After final wash, centrifuge plate up-side-down at 1000 rpm to remove wash solution completely from wells. Before plate scanning, clean the bottom plate surface and the Odyssey© Imager scanning bed (if applicable) with moist, lint-free tissue to avoid any obstructions during scanning. Scan plate with detection in both 700 and 800 nm channels.

Compound | IC50
C=C1CN2CCC[C@@]2(Cn2c(=O)nc3c4c(nc(-c5cc(O)cc6ccc(F)c(CC)c56)c(F)c42)OC[C@@H]2[C@@H]4CC[C@H](CN32)N4)C1 (single isomer, unassigned) [Example 46a] | 5.9 nM
C=C1CN2CCC[C@]2(Cn2c(=O)nc3c4c(nc(-c5cc(O)cc6ccc(F)c(CC)c56)c(F)c42)OC[C@@H]2[C@@H]4CC[C@H](CN32)N4)C1 (single isomer, unassigned) [Example 46b] | 28 nM
C#Cc1c(F)ccc2cccc(-c3nc4c5c(nc(=O)n(C[C@]67CCCN6CC(=C)C7)c5c3F)N3C[C@H]5CC[C@H](N5)[C@H]3[C@H](C)O4)c12 (single isomer, unassigned) [Example 200b] | 697 nM
C#Cc1c(F)ccc2cccc(-c3nc4c5c(nc(=O)n(C[C@]67CC(=C)CN6C[C@@H](F)C7)c5c3F)N3C[C@H]5CC[C@H](N5)[C@H]3[C@H](C)O4)c12 (single isomer, unassigned) [Example 202b] | 991 nM
CCc1c(F)ccc2cc(O)cc(-c3nc4c5c(nc(=O)n(C[C@@]67CCCN6C[C@H](F)C7)c5c3F)N3C[C@@](C)(O)CCC3CO4)c12 (single isomer, unassigned) [Example 350a1] | 151 nM
CCc1c(F)ccc2cc(O)cc(-c3nc4c5c(nc(=O)n(C(C)[C@H]6CCN6C)c5c3F)N3C[C@H]5CC[C@H](N5)[C@H]3[C@H](C)O4)c12 (single isomer, unassigned) [Example 376a] | 145 nM
C#Cc1c(F)ccc2cccc(-c3nc4c5c(nc(=O)n(C[C@@]67CCCN6C[C@H](F)C7)c5c3F)N3C[C@H]5CC[C@H](N5)[C@H]3CO4)c12 [Example 1, (5aS,6S,9R)-2-(8-ethynyl-7-fluoronaphthalen-1-yl)-1-fluoro-13-(((2R,7aS)-2-fluorotetrahydro-1H-pyrrolizin-7a(5H)-yl)methyl)-5a,6,7,8,9,10-hexahydro-5H-4-oxa-3,10a,11,13,14-pentaaza-6,9-methanonaphtho[1,8-ab]heptalen-12(13H)-one] | 386 nM
C#Cc1c(F)ccc2cccc(-c3nc4c5c(nc(=O)n(CC67CCCN6CC(=C)C7)c5c3F)N3C[C@H]5CC[C@H](N5)[C@H]3CO4)c12 (stereo partly drawn) [Example 2] | 15 nM
C#Cc1c(F)ccc2cc(O)cc(-c3nc4c5c(nc(=O)n(CC67CCCN6CC(=C)C7)c5c3F)N3C[C@H]5CC[C@H](N5)[C@H]3CO4)c12 (stereo partly drawn) [Example 24] | 85 nM
CCc1c(F)ccc2cc(O)cc(-c3nc4c5c(nc(=O)n(C[C@@]67CCCN6C[C@H](F)C7)c5c3F)N3C[C@H]5CC[C@H](N5)[C@H]3CO4)c12 [Example 45, (8aS,9S,12R)-5-(8-ethyl-7-fluoro-3-hydroxynaphthalen-1-yl)-4-fluoro-3-(((2R,7aS)-2-fluorotetrahydro-1H-pyrrolizin-7a(5H)-yl)methyl)-8a,9,10,11,12,13-hexahydro-8H-7-oxa-1,3,6,13a,14-pentaaza-9,12-methanonaphtho[1,8-ab]heptalen-2(3H)-one] | 23 nM
C=C1CN2CC(=C)CC2(Cn2c(=O)nc3c4c(nc(-c5cc(O)cc6ccc(F)c(CC)c56)c(F)c42)OC[C@@H]2[C@@H]4CC[C@H](CN32)N4)C1 [Example 47] | 629 nM
C#Cc1c(F)ccc2cccc(-c3nc4c5c(nc(=O)n(C[C@@]67CCCN6C[C@H](F)C7)c5c3F)N3C[C@H]5CC[C@H](N5)[C@H]3[C@H](C)O4)c12 [Example 199, (5S,5aS,6S,9R)-2-(8-ethynyl-7-fluoronaphthalen-1-yl)-1-fluoro-13-(((2R,7aS)-2-fluorotetrahydro-1H-pyrrolizin-7a(5H)-yl)methyl)-5-methyl-5a,6,7,8,9,10-hexahydro-5H-4-oxa-3,10a,11,13,14-pentaaza-6,9-methanonaphtho[1,8-ab]heptalen-12(13H)-one] | 37 nM
C#Cc1c(F)ccc2cc(O)cc(-c3nc4c5c(nc(=O)n(CC67CCCN6CC(=C)C7)c5c3F)N3C[C@H]5CC[C@H](N5)[C@H]3[C@H](C)O4)c12 (stereo partly drawn) [Example 222] | 113 nM
CCc1c(F)ccc2cc(O)cc(-c3nc4c5c(nc(=O)n(C[C@@]67CCCN6C[C@H](F)C7)c5c3F)N3C[C@H]5CC[C@H](N5)[C@H]3[C@H](C)O4)c12 [Example 227] | 5.2 nM
C=C1CN2CCCC2(Cn2c(=O)nc3c4c(nc(-c5cc(O)cc6ccc(F)c(CC)c56)c(F)c42)O[C@@H](C)[C@@H]2[C@@H]4CC[C@H](CN32)N4)C1 (stereo partly drawn) [Example 228] | 19 nM
C#Cc1c(F)ccc2cc(O)cc(-c3nc4c5c(cc(=O)n(C[C@@]67CCCN6CC(=C)C7)c5c3F)N3C[C@H]5CC[C@H](N5)[C@H]3[C@H](C)O4)c12 [Example 330, (5S,5aS,6S,9R)-2-(8-ethynyl-7-fluoro-3-hydroxynaphthalen-1-yl)-1-fluoro-5-methyl-14-(((S)-2-methylenetetrahydro-1H-pyrrolizin-7a(5H)-yl)methyl)-5a,6,7,8,9,10-hexahydro-5H-6,9-epiminoazepino[2′,1′:3,4][1,4] oxazepino[5,6,7-de][1,6]naphthyridin-13(14H)-one] | 171 nM
C#Cc1c(F)ccc2cc(O)cc(-c3c(F)c4c5c(cc(=O)n(C[C@@]67CCCN6C[C@H](F)C7)c5c3F)N3C[C@H]5CC[C@H](N5)[C@H]3CO4)c12 [Example 332, (5aS,6S,9R)-2-(8-ethynyl-7-fluoro-3-hydroxynaphthalen-1-yl)-1,3-difluoro-14-(((2R,7aS)-2-fluorotetrahydro-1H-pyrrolizin-7a(5H)-yl)methyl)-5a,6,7,8,9,10-hexahydro-5H-6,9-epiminoazepino[2′,1′:3,4][1,4] oxazepino[5,6,7-de]quinolin-13(14H)-one] | 778 nM
C#Cc1c(F)ccc2cccc(-c3nc4c5c(nc(=O)n([C@H](C)CN6[C@@H]7CC[C@H]6COC7)c5c3F)N3C[C@H]5CC[C@H](N5)[C@H]3[C@H](C)O4)c12 [Example 341, (5S,5aS,6S,9R)-13-((R)-1-((1R,5S)-3-oxa-8-azabicyclo[3.2.1]octan-8-yl)propan-2-yl)-2-(8-ethynyl-7-fluoronaphthalen-1-yl)-1-fluoro-5-methyl-5a,6,7,8,9,10-hexahydro-5H-4-oxa-3,10a,11,13,14-pentaaza-6,9-methanonaphtho[1,8-ab]heptalen-12(13H)-one] | 70 nM
C#Cc1c(F)ccc2cccc(-c3nc4c5c(nc(=O)n(C[C@@]6(C)CCN6C)c5c3F)N3C[C@H]5CC[C@H](N5)[C@H]3[C@H](C)O4)c12 [Example 357, (5S,5aS,6S,9R)-13-(((R)-1,2-dimethylazetidin-2-yl)methyl)-2-(8-ethynyl-7-fluoronaphthalen-1-yl)-1-fluoro-5-methyl-5a,6,7,8,9,10-hexahydro-5H-4-oxa-3,10a,11,13,14-pentaaza-6,9-methanonaphtho[1,8-ab]heptalen-12(13H)-one] | 123 nM

Same assay, conditions: Homo sapiens; PANC-1 cells, compound incubation 3 hours, pERK normalised with GAPDH antibody staining

Compound | IC50
C#Cc1c(F)ccc2cc(O)cc(-c3nc4c5c(nc(=O)n(C[C@@]67CCCN6C[C@H](F)C7)c5c3F)N3C[C@H]5CC[C@H](N5)[C@H]3CO4)c12 [Example 23, (5aS,6S,9R)-2-(8-ethynyl-7-fluoro-3-hydroxynaphthalen-1-yl)-1-fluoro-13-(((2R,7aS)-2-fluorotetrahydro-1H-pyrrolizin-7a(5H)-yl)methyl)-5a,6,7,8,9,10-hexahydro-5H-4-oxa-3,10a,11,13,14-pentaaza-6,9-methanonaphtho[1,8-ab]heptalen-12(13H)-one] | 96 nM

Same assay, conditions: PANC-1 cells, compound incubation 3 hours, pERK normalised with GAPDH antibody staining

Compound | IC50
C#Cc1c(F)ccc2cccc(-c3nc4c5c(nc(=O)n(CC(C)(CO)N(C)C)c5c3F)N3C[C@H]5CC[C@H](N5)[C@H]3[C@H](C)O4)c12 (single isomer, unassigned) [Example 365b] | 110 nM
C#Cc1c(F)ccc2cccc(-c3nc4c5c(nc(=O)n(C6C7CC6CN(C)C7)c5c3F)N3C[C@H]5CC[C@H](N5)[C@H]3[C@H](C)O4)c12 (single isomer, unassigned) [Example 371a] | 304 nM
C#Cc1c(F)ccc2cccc(-c3nc4c5c(nc(=O)n(C6C7CC6CN(C)C7)c5c3F)N3C[C@H]5CC[C@H](N5)[C@H]3[C@H](C)O4)c12 (single isomer, unassigned) [Example 371b] | 794 nM
C#Cc1c(F)ccc2cccc(-c3nc4c5c(nc(=O)n(C(C)[C@H]6CCN6C)c5c3F)N3C[C@H]5CC[C@H](N5)[C@H]3[C@H](C)O4)c12 (single isomer, unassigned) [Example 372a] | 391 nM
C#Cc1c(F)ccc2cccc(-c3nc4c5c(nc(=O)n(C(C)[C@H]6CCN6C)c5c3F)N3C[C@H]5CC[C@H](N5)[C@H]3[C@H](C)O4)c12 (single isomer, unassigned) [Example 372b] | 70 nM
CCc1c(F)ccc2cc(O)cc(-c3nc4c5c(nc(=O)n(CC(C)(CO)N(C)C)c5c3F)N3C[C@H]5CC[C@H](N5)[C@H]3[C@H](C)O4)c12 (single isomer, unassigned) [Example 373b] | 137 nM
CCc1c(F)ccc2cc(O)cc(-c3nc4c5c(nc(=O)n(C(C)[C@H]6CCN6C)c5c3F)N3C[C@H]5CC[C@H](N5)[C@H]3[C@H](C)O4)c12 (single isomer, unassigned) [Example 376b] | 133 nM
